In patent US12247010B2, “Tubulin inhibitors” (LIN BIOSCIENCE PTY LTD., priority 2017, dated 2025):

System: U87MG cells
Assay: Cytotoxicity assay (cell viability, CellTiter 96 Aqueous MTS)
Format: cell-based
Details: Homo sapiens, U-87 MG, 72 h, 72 hours incubation, starting concentration 50 uM, 9 point half log dilution, average where tested repeatedly
Outline: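 U87MG cells plated at 7×10^3 cells/well overnight, then treated 72 h with 9-point half-log dilutions from a 50 uM starting concentration. Viability measured with CellTiter 96 Aqueous MTS; IC50 calculated from viability.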

Row | Compound | IC50
1 | COc1cccc(-c2ccc(CCCNC(=O)c3cc(C)on3)cc2)c1F [Compound 240, N-(3-(2′-fluoro-3′-methoxy-[1,1′-biphenyl]-4-yl)propyl)-5-methylisoxazole-3-carboxamide] | 0.501 to 1 µM
2 | Cc1ncccc1C(=O)NCCCc1ccc(-c2ccc3c(cnn3C)c2)cc1 [Compound 241, 2-methyl-N-(3-(4-(1-methyl-1H-indazol-5-yl)phenyl)propyl)nicotinamide] | < 0.5 µM
3 | Cc1cc(C(=O)NCCCc2ccc(-c3ccc4ncccc4c3)cc2)n(C)n1 [Compound 242, 1,3-dimethyl-N-(3-(4-(quinolin-6-yl)phenyl)propyl)-1H-pyrazole-5-carboxamide] | < 0.5 µM
4 | COc1ccc(CC(=O)NCCCc2ccc(-c3ccc4c(cnn4C)c3)cc2)cc1 [Compound 244, 2-(4-methoxyphenyl)-N-(3-(4-(1-methyl-1H-indazol-5-yl)phenyl)propyl)acetamide] | < 0.5 µM
5 | COc1ccc(CC(=O)NCCCc2ccc(-c3cccc(OC)c3F)cc2)cc1 [Compound 245, N-(3-(2′-fluoro-3′-methoxy-[1,1′-biphenyl]-4-yl)propyl)-2-(4-methoxyphenyl)acetamide] | 0.501 to 1 µM
6 | COc1ccc(CC(=O)NCCCc2ccc(-c3ccc4ncccc4c3)cc2)cc1 [Compound 246, 2-(4-methoxyphenyl)-N-(3-(4-(quinolin-6-yl)phenyl)propyl)acetamide] | < 0.5 µM
7 | COc1ccc(CC(=O)NCCCc2ccc(-c3ccc4[nH]ncc4c3C)cc2)cc1 [Compound 247, 2-(4-methoxyphenyl)-N-(3-(4-(4-methyl-1H-indazol-5-yl)phenyl)propyl)acetamide] | < 0.5 µM
8 | COc1cccc(-c2ccc(CCCNC(=O)c3cncnc3)cc2)c1F [Compound 248] | 0.501 to 1 µM
9 | O=S(=O)(NCCCc1ccc(-c2ccccc2F)cc1)c1cccnc1 [Compound 262, N-(3-(2′-fluoro-[1,1′-biphenyl]-4-yl)propyl) pyridine-3-sulfonamide] | 1 to 5 µM
10 | Cn1cnc(S(=O)(=O)NCCCc2ccc(-c3ccccc3F)cc2)c1 [Compound 263, N-(3-(2′-fluoro-[1,1′-biphenyl]-4-yl)propyl)-1-methyl-1H-imidazole-4-sulfonamide] | 1 to 5 µM
11 | O=C(Nc1ccc2[nH]ccc2c1)OCCc1ccc(-c2ccccc2F)cc1 [Compound 272, 2-(2′-fluoro-[1,1′-biphenyl]-4-yl)ethyl (1H-indol-5-yl)carbamate] | > 5 µM
12 | COc1ccc(CNC(=O)OCCc2ccc(-c3ccccc3F)cc2)cc1 [Compound 273, 2-(2′-fluoro-[1,1′-biphenyl]-4-yl)ethyl (4-methoxybenzyl)carbamate] | > 5 µM
13 | Cc1ccc(NC(=O)OCCc2ccc(-c3ccccc3F)cc2)cn1 [Compound 274, 2-(2′-fluoro-[1,1′-biphenyl]-4-yl)ethyl (6-methylpyridin-3-yl)carbamate] | > 5 µM
14 | COc1cccc(-c2ccc(CC(C)(C)CNC(=O)c3ccc(C)nc3)cc2)c1F [Compound 276, N-(3-(2′-fluoro-3′-methoxy-[1,1′-biphenyl]-4-yl)-2,2-dimethylpropyl)-6-methylnicotinamide] | 1 to 5 µM
15 | Cc1ccc(C(=O)NCC(C)(C)Cc2ccc(-c3ccc4c(cnn4C)c3)cc2)cn1 [Compound 277, N-(2,2-dimethyl-3-(4-(1-methyl-1H-indazol-5-yl)phenyl)propyl)-6-methylnicotinamide] | 0.501 to 1 µM
16 | O=C(Nc1cccnc1)N1CCN(c2ccc(-c3ccccc3F)cc2)CC1 [Compound 278, 4-(2′-fluoro-[1,1′-biphenyl]-4-yl)-N-(pyridin-3-yl)piperazine-1-carboxamide] | 1 to 5 µM
17 | Cc1ccc(NC(=O)N2CCN(c3ccc(-c4ccccc4F)cc3)CC2)cn1 [Compound 279, 4-(2′-fluoro-[1,1′-biphenyl]-4-yl)-N-(6-methylpyridin-3-yl)piperazine-1-carboxamide] | 0.501 to 1 µM
18 | O=C(Nc1cn[nH]c1)N1CCN(c2ccc(-c3ccccc3F)cc2)CC1 [Compound 281, 4-(2′-fluoro-[1,1′-biphenyl]-4-yl)-N-(1H-pyrazol-4-yl)piperazine-1-carboxamide] | > 5 µM
19 | Cc1ccc(C(=O)NCCOc2ccc(-c3ccccc3F)cc2)cn1 [Compound 282, N-(2-((2′-fluoro-[1,1′-biphenyl]-4-yl)oxy)ethyl)-6-methylnicotinamide] | > 5 µM
20 | O=C(Cc1ccc(F)cc1)NCCCc1ccc(-c2ccccc2F)cc1 [Compound 284, N-(3-(2′-fluoro-[1,1′-biphenyl]-4-yl)propyl)-2-(4-fluorophenyl)acetamide] | < 0.5 µM
21 | Cc1oncc1C(=O)NCCCc1ccc(-c2ccccc2F)cc1 [Compound 285, N-(3-(2′-fluoro-[1,1′-biphenyl]-4-yl)propyl)-5-methylisoxazole-4-carboxamide] | > 5 µM
22 | Cc1cc2ncc(C(=O)NCCCc3ccc(-c4ccccc4F)cc3)cn2n1 [Compound 286, N-(3-(2′-fluoro-[1,1′-biphenyl]-4-yl)propyl)-2-methylpyrazolo[1,5-a]pyrimidine-6-carboxamide] | < 0.5 µM

Row | Compound | IC50
23 | Cc1ncoc1C(=O)NCCCc1ccc(-c2ccccc2F)cc1 [Compound 290, N-(3-(2′-fluoro-[1,1′-biphenyl]-4-yl)propyl)-4-methyloxazole-5-carboxamide] | > 5 µM
24 | COc1ncccc1C(=O)NCCCc1ccc(-c2ccccc2F)cc1 [Compound 292, N-(3-(2′-fluoro-[1,1′-biphenyl]-4-yl)propyl)-2-methoxynicotinamide] | > 5 µM
25 | O=C(Cc1ccc2c(c1)OCCO2)NCCCc1ccc(-c2ccccc2F)cc1 [Compound 293, 2-(2,3-dihydrobenzo[b][1,4]dioxin-6-yl)-N-(3-(2′-fluoro-[1,1′-biphenyl]-4-yl)propyl)acetamide] | > 5 µM
26 | Cn1ccc2cc(-c3ccc(CCCC(=O)Nc4cccnc4)cc3)cnc21 [Compound 294, 4-(4-(1-methyl-1H-pyrrolo[2,3-b]pyridin-5-yl)phenyl)-N-(pyridin-3-yl)butanamide] | 0.501 to 1 µM
27 | O=C(CCCc1ccc(-c2c[nH]c3ncccc23)cc1)Nc1cccnc1 [Compound 295, 4-(4-(1H-pyrrolo[2,3-b]pyridin-3-yl)phenyl)-N-(pyridin-3-yl)butanamide] | 1 to 5 µM
28 | Cn1cnc2cc(-c3ccc(CCCC(=O)Nc4cccnc4)cc3)ccc21 [Compound 296, 4-(4-(1-methyl-1H-benzo [d]imidazol-5-yl)phenyl)-N-(pyridin-3-yl)butanamide] | < 0.5 µM
29 | Cc1nc2cc(-c3ccc(CCCC(=O)Nc4cccnc4)cc3)ccc2n1C [Compound 297, 4-(4-(1,2-dimethyl-1H-benzo[d]imidazol-5-yl)phenyl)-N-(pyridin-3-yl)butanamide] | < 0.5 µM
30 | Cn1cnc2ccc(-c3ccc(CCCC(=O)Nc4cccnc4)cc3)cc2c1=O [Compound 299, 4-(4-(3-methyl-4-oxo-3,4-dihydroquinazolin-6-yl)phenyl)-N-(pyridin-3-yl)butanamide] | > 5 µM
31 | Cc1cc(-c2ccc(CCCC(=O)Nc3cccnc3)cc2)cc2cn[nH]c12 [Compound 301, 4-(4-(7-methyl-1H-indazol-5-yl)phenyl)-N-(pyridin-3-yl)butanamide] | < 0.5 µM
32 | Cc1cc2[nH]ncc2cc1-c1ccc(CCCC(=O)Nc2cccnc2)cc1 [Compound 302, 4-(4-(6-methyl-1H-indazol-5-yl)phenyl)-N-(pyridin-3-yl)butanamide] | 1 to 5 µM
33 | Cc1ccc(C(=O)NCC2(Cc3ccc(-c4ccc5c(cnn5C)c4)cc3)CC2)cn1 [Compound 303, 6-methyl-N-((1-(4-(1-methyl-1H-indazol-5-yl)benzyl)cyclopropyl)methyl) nicotinamide] | > 5 µM
34 | COc1cccc(-c2ccc(CCCNC(=O)c3cnc(C)s3)cc2)c1F [Compound 304, N-(3-(2′-fluoro-3′-methoxy-[1,1′-biphenyl]-4-yl)propyl)-2-methylthiazole-5-carboxamide] | < 0.5 µM
35 | Cc1ncc(C(=O)NCCCc2ccc(-c3ccc4c(cnn4C)c3)cc2)s1 [Compound 305, 2-methyl-N-(3-(4-(1-methyl-1H-indazol-5-yl)phenyl)propyl)thiazole-5-carboxamide] | < 0.5 µM
36 | O=C(NCCCc1ccc(-c2ccc3ncccc3c2)cc1)c1cncnc1 [Compound 306, N-(3-(4-(quinolin-6-yl)phenyl)propyl)pyrimidine-5-carboxamide] | < 0.5 µM
37 | O=C(NCCCc1ccc(-c2cnc3[nH]ccc3c2)cc1)c1cncnc1 [Compound 307, N-(3-(4-(1H-pyrrolo [2,3-b]pyridin-5-yl)phenyl)propyl)pyrimidine-5-carboxamide] | < 0.5 µM
38 | Cc1ncc(C(=O)NCCCc2ccc(-c3ccc4[nH]ncc4c3C)cc2)s1 [Compound 308, 2-methyl-N-(3-(4-(4-methyl-1H-indazol-5-yl)phenyl)propyl)thiazole-5-carboxamide] | < 0.5 µM
39 | Cc1ncc(C(=O)NCCCc2ccc(-c3cnc4[nH]ccc4c3)cc2)s1 [Compound 309, N-(3-(4-(1H-pyrrolo[2,3-b]pyridin-5-yl)phenyl)propyl)-2-methylthiazole-5-carboxamide] | < 0.5 µM
40 | Cc1ncccc1C(=O)NCCCc1ccc(-c2ccc3[nH]ncc3c2C)cc1 [Compound 310, 2-methyl-N-(3-(4-(4-methyl-1H-indazol-5-yl)phenyl)propyl)nicotinamide] | < 0.5 µM
41 | Cc1ncccc1C(=O)NCCCc1ccc(-c2cnc3[nH]ccc3c2)cc1 [Compound 311, N-(3-(4-(1H-pyrrolo[2,3-b]pyridin-5-yl)phenyl)propyl)-2-methylnicotinamide] | < 0.5 µM
42 | Cc1ccc(C(=O)NCCCc2ccc(-c3ccc4c(c3)OCC(=O)N4)cc2)cn1 [Compound 312, 6-methyl-N-(3-(4-(3-oxo-3,4-dihydro-2H-benzo[b][1,4]oxazin-7-yl)phenyl)propyl)nicotinamide] | < 0.5 µM
43 | Cc1cc(C(=O)NCCCc2ccc(-c3ccc4c(c3)OCC(=O)N4)cc2)n(C)n1 [Compound 313, 1,3-dimethyl-N-(3-(4-(3-oxo-3,4-dihydro-2H-benzo[b][1,4]oxazin-7-yl)phenyl)propyl)-1H-pyrazole-5-carboxamide] | < 0.5 µM
